Experimental data from patent publication US8569484B2, “Heterocyclic urea derivatives and methods of use thereof” (Astrazeneca AB, priority 2009, dated 2013).
Values after ≈ are worked out from the molar mass of the structure shown.

Columns and labels:
S. aureus GyrB ATPase = S. aureus GyrB ATPase (Staphylococcus aureus, UniProt P0A0K8); assay: S. aureus GyrB ATPase inhibition (ammonium molybdate/malachite green phosphate detection); format: biochemical; conditions: 1 μM compound; S. aureus GyrB ATPase; read-out: Percent Inhibition (1 μM)
Method: S. aureus GyrB ATPase Inhibition Activity: Compounds may be tested for inhibition of S. aureus GyrB ATPase activity using an ammonium molybdate/malachite green-based phosphate detection assay (Lanzetta, P. A., L. J. Alvarez, P. S. Reinach, and O. A. Candia, 1979, 100: 95-97). Assays can be performed in multiwell plates in 30 μl reactions containing: 50 mM Hepes buffer pH 7.5, 75 mM ammonium acetate, 8.0 mM magnesium chloride, 0.5 mM ethylenediaminetetraacetic acid, 5% glycerol, 1.0 mM 1,4-Dithio-DL-threitol, 200 nM bovine serum albumin, 1.0 μg/ml sheared salmon sperm DNA, 250 pM E. coli GyrA, 250 pM S. aureus GyrB, 250 μM ATP, and compound in dimethylsulfoxide. Reactions can be quenched with 30 μl of ammonium molybdate/malachite green detection reagent containing 1.2 mM malachite green hydrochloride, 8.5 mM ammonium molybdate tetrahydrate, and 1 M hydrochloric acid. Plates can be read in an absorbance plate reader at 650 nm and percent inhibition values can be calculated using dimethylsulfoxide (2%)-containing reactions as 0% inhibition and EDTA-containing ([…]) reactions as 100% inhibition controls. An IC50 measurement of compound potency for each compound can be determined from reactions performed in the presence of 10 different compound concentrations.

S. aureus = assay: Bacterial susceptibility testing in liquid media (MIC); format: cell-based; conditions: Staphylococcus aureus; against S. aureus; lowest concentration able to reduce growth by 80% or more
Text: Compounds may be tested for antimicrobial activity by susceptibility testing in liquid media. Compounds may be dissolved in dimethylsulfoxide and tested in 10 doubling dilutions in the susceptibility assays. The organisms used in the assay may be grown overnight on suitable agar media and then suspended in a liquid medium appropriate for the growth of the organism. The suspension can be a 0.5 McFarland and a further 1 in 10 dilution can be made into the same liquid medium to prepare the final organism suspension in 100 μL. Plates can be incubated under appropriate conditions at 37° C. for 24 hrs prior to reading. The Minimum Inhibitory Concentration (MIC) may be determined as the lowest drug concentration able to reduce growth by 80% or more.

Chain of S. aureus GyrB ATPase (P0AES4 whole entry): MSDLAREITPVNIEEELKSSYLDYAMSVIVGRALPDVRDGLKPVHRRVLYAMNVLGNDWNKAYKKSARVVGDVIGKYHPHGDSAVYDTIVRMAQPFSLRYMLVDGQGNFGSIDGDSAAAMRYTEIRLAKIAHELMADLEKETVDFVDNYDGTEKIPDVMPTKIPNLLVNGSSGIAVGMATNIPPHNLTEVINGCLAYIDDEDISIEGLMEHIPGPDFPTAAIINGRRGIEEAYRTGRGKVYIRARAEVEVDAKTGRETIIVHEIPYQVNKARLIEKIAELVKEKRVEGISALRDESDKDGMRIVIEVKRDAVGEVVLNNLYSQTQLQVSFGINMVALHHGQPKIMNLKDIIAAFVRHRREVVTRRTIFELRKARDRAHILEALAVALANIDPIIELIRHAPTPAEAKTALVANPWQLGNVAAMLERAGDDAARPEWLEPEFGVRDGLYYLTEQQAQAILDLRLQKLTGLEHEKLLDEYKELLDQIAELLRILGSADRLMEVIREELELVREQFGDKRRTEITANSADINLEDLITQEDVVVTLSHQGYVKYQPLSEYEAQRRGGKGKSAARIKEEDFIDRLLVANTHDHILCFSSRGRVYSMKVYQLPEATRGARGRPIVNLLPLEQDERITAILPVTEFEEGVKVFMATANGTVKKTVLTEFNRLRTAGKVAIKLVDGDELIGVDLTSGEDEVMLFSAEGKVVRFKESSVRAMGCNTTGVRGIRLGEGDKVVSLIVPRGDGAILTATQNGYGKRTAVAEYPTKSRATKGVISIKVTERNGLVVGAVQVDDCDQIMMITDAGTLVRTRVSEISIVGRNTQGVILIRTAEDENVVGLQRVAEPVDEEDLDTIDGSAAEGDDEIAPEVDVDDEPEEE
Chain of S. aureus GyrB ATPase (P0A0K8 whole entry): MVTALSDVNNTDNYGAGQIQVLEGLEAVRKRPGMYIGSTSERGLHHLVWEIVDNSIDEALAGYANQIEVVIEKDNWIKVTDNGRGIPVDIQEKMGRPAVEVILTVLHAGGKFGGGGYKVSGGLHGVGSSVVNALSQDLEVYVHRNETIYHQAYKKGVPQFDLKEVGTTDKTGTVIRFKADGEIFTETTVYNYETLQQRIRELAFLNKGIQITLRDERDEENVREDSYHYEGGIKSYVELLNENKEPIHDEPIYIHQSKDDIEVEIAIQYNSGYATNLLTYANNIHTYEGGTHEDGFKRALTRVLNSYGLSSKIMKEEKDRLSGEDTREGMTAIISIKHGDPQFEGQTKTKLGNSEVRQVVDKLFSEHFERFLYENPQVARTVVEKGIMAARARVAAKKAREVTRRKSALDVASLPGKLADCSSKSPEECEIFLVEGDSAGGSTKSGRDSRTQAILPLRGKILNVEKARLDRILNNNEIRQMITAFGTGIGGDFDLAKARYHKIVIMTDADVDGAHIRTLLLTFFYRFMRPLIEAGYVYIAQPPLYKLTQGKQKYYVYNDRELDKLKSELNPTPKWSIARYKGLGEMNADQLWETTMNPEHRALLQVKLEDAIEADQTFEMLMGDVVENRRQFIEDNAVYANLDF

Row | SMILES | inhibition at 1 µM (S. aureus GyrB ATPase) [%] | MIC (S. aureus) [µM]
1 | CCNC(=O)Nc1cc(-c2nc(C(F)(F)F)cs2)c(-c2cnc3c(c2)c(=O)c(C(=O)O)cn3CCO)cn1 [Example 10, 6-{6-[(ethylcarbamoyl)amino]-4-[4-(trifluoromethyl)-1,3-thiazol-2-yl]pyridin-3-yl}-1-(2-hydroxyethyl)-4-oxo-1,4-dihydro-1,8-naphthyridine-3-carboxylic acid] | 93 | 0.55 (≈ 0.302 µg/mL)
2 | CCNC(=O)Nc1cc(-c2nc(-c3ccccc3)cs2)c(-c2cc3c(=O)c(C(=O)O)cn([C@@H]4CCCN(CCN5CCOCC5)C4)c3cn2)cn1 [Example 64] | 100 | –
3 | CCNC(=O)Nc1cc(-c2nc(-c3ccccc3)cs2)c(-c2cc3c(=O)c(C(=O)O)cn(Cc4cn(C)cn4)c3cn2)cn1 [Example 65] | 98 | –
4 | CCNC(=O)Nc1cc(-c2nc(C(F)(F)F)cs2)c(-c2cc3c(=O)c(C(=O)O)cn(C(C)(C)C)c3cn2)cn1 [Example 66] | 106 | –
5 | CCNC(=O)Nc1cc(-c2nc(C(F)(F)F)cs2)c(-c2cc3c(=O)c(C(=O)O)cn(CCN4CCCC4)c3cn2)cn1 [Example 67] | 93 | –
6 | CCNC(=O)Nc1cc(-c2nc(C(F)(F)F)cs2)c(-c2cc3c(=O)c(C(=O)O)cn(CC)c3cn2)cn1 [Example 68] | 110 | –
7 | CCNC(=O)Nc1cc(-c2nc(C(F)(F)F)cs2)c(-c2cc3c(=O)c(C(=O)O)cn(CCN4CCOCC4)c3cn2)cn1 [Example 69] | 103 | –
8 | CCNC(=O)Nc1cc(-c2nc(C(F)(F)F)cs2)c(-c2cc3c(=O)c(C(=O)O)cn(C4CN(C)C4)c3cn2)cn1 [Example 70] | 102 | –
9 | CCNC(=O)Nc1cc(-c2nc(C(F)(F)F)cs2)c(-c2cc3c(=O)c(C(=O)O)cn([C@H](CO)C(C)(C)C)c3cn2)cn1 [Example 71] | 103 | –
10 | CCNC(=O)Nc1cc(-c2nc(C(F)(F)F)cs2)c(-c2cc3c(=O)c(C(=O)O)cn(Cc4ccncc4)c3cn2)cn1 [Example 72] | 105 | –
11 | CCCN1CC[C@H](Cn2cc(C(=O)O)c(=O)c3cc(-c4cnc(NC(=O)NCC)cc4-c4nc(C(F)(F)F)cs4)ncc32)C1 [Example 73] | 108 | –
12 | CCNC(=O)Nc1cc(-c2nc(C(F)(F)F)cs2)c(-c2cc3c(=O)c(C(=O)O)cn(C[C@@H]4CCN(CC)C4)c3cn2)cn1 [Example 74] | 100 | –
13 | CCNC(=O)Nc1cc(-c2nc(-c3cnn(C)c3)cs2)c(-c2cc3c(=O)c(C(=O)O)cn(C4CC4)c3cn2)cn1 [Example 75] | 108 | –
14 | CCNC(=O)Nc1cc(-c2nc(-c3cnn(C)c3)cs2)c(-c2cc3c(=O)c(C(=O)O)cn(Cc4cn(C)cn4)c3cn2)cn1 [Example 76, 6-(6-(3-ethylureido)-4-(4-(1-methyl-1H-pyrazol-4-yl)thiazol-2-yl)pyridin-3-yl)-1-((1-methyl-1H-imidazol-4-yl)methyl)-4-oxo-1,4-dihydro-1,7-naphthyridine-3-carboxylic acid] | 109 | –
15 | CCNC(=O)Nc1cc(-c2nc(C(F)(F)F)cs2)c(-c2cc3c(=O)c(C(=O)O)cn(CC)c3nc2N2CCC(N)C2)cn1 (centres unmarked) [Example 77] | 105 | –
16 | CCNC(=O)Nc1cc(-c2nc(C(F)(F)F)cs2)c(-c2cc3c(=O)c(C(=O)O)cn([C@H](CO)C(C)(C)C)c3nc2N2CCC(N)C2)cn1 (stereo partly drawn) [Example 78, 7-(3-aminopyrrolidin-1-yl)-6-(6-(3-ethylureido)-4-(4-(trifluoromethyl)thiazol-2-yl)pyridin-3-yl)-1-((S)-1-hydroxy-3,3-dimethylbutan-2-yl)-4-oxo-1,4-dihydro-1,8-naphthyridine-3-carboxylic acid] | 98 | –
